Experimental data as given in patent US9592223B2, “Small molecule inhibitors of MALT1” (Cornell University, priority 2012, dated 2017).
Where two headings read alike, the source gives them in different places.

Assays:
HBL-1 cells = test: Growth inhibition, ATP-based luminescent assay; assay type: cell-based; conditions: Homo sapiens, HBL1
Description: (§1) Cell proliferation was determined by ATP quantification using a luminescent method (CellTiter-Glo, Promega, Madison, Wis.) and Trypan blue dye-exclusion (Sigma, St. Louis, Mo.). Cell viability in drug-treated cells was normalized to their respective controls (fractional viability) and results are given as 1-fractional viability. CompuSyn software (Biosoft, Cambridge, UK) was used to determine drug concentrations inhibiting fractional growth compared to controls.
(§2) DLBCL cell lines were grown in exponential growth conditions during the 48 hr of treatment. Cell proliferation was determined by ATP quantification using a luminescent method (CellTiter-Glo, Promega, Madison, Wis.) and Trypan blue dye-exclusion (Sigma, St. Louis, Mo.). Luminescence was measured using the Synergy4 microplate reader (BioTek Instruments, Winooski, Vt.). Standard curves for each cell line were calculated by plotting the cell number (determined by the Trypan blue method) against their luminescence values and number of cells was calculated accordingly. Cell viability in drug-treated cells was normalized to their respective controls (fractional viability) and results are given as 1-fractional viability. CompuSyn software (Biosoft, Cambridge, UK) was used to determine the drug concentration that inhibits the growth of cell lines by […]. Experiments were performed in triplicate.

OCI-Ly10 cells = test: Growth inhibition, ATP-based luminescent assay; assay type: cell-based; conditions: Homo sapiens; OCI-Ly10, single dose, 48 hr
Description: as §1, §2

OCI-Ly3 cells = test: Growth inhibition, ATP-based luminescent assay; assay type: cell-based; conditions: Homo sapiens; OCI-Ly3, single dose, 48 hr
Description: as §1, §2

[1] = system: MALT1 dependent ABC-DLBCL cells HBL-1, TMD8, OCI-Ly3 and OCI-Ly10; test: Growth inhibition, MALT1 dependent cell lines; assay type: cell-based, human; conditions: increasing concentrations, single dose, 48 hr
Description: Endogenous MALT1 activity was evaluated by Western blotting for A20, BCL10 and CYLD; and NF-κB activation, by phospho-IκB-α and total IκB-α. Dependence on MALT1 proteolytic activity for proliferation was tested by 50[…]μM Z-VRPR-FMK treatment for 48 hr. […] The U2932 and HLY1 ABC-DLBCL cell lines harbor mutations in TAK1 and A20, which activate NF-κB signaling downstream of MALT1.
as §1, with “CompuSyn software (Biosoft, Cambridge, UK) was used to determine drug concentrations inhibiting fractional growth compared to controls.” left out
DLBCL cell lines were grown in exponential growth conditions during the 48 hr of treatment. Cell proliferation was determined by ATP quantification using a luminescent method (CellTiter-Glo, Promega, Madison, Wis.) and Trypan blue dye-exclusion (Sigma, St. Louis, Mo.). Luminescence was measured using the Synergy4 microplate reader (BioTek Instruments, Winooski, Vt.). Standard curves for each cell line were calculated by plotting the cell number (determined by the Trypan blue method) against their luminescence values and number of cells was calculated accordingly. […]

Caspase-3 = Caspase-3 (Homo sapiens, UniProt P42574); test: Caspase selectivity; assay type: biochemical
Sequence of Caspase-3 (P42574 29-175 limits assumed, species assumed): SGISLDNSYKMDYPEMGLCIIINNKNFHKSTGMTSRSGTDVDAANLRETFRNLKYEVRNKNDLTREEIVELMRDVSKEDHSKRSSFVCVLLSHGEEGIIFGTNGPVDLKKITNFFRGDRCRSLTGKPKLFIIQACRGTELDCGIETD
Sequence of Caspase-3 (P42574 176-277 limits assumed, species assumed): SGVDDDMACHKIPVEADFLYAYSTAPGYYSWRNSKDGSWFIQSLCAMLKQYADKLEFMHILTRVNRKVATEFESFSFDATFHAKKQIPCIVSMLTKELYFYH

Caspase-9 = Caspase-9 (Homo sapiens, UniProt P55211); test: Caspase selectivity; assay type: biochemical
Sequence of Caspase-9 (P55211 whole entry, species assumed, the tested form may be a part): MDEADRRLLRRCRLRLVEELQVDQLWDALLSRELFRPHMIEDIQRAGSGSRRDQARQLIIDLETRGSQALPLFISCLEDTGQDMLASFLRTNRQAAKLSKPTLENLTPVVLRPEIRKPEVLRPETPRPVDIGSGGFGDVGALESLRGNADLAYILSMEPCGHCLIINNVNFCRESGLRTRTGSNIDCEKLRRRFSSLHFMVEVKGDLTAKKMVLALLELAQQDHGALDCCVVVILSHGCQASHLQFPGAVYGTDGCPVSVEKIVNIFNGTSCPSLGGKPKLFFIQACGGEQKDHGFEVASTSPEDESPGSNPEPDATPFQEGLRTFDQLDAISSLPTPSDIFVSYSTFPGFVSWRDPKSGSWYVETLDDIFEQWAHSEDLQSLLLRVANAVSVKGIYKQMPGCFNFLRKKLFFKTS

[2] = target: T1, MALT1 paracaspase domain (329-728) (Homo sapiens, UniProt Q9UDY8); test: LC-MS covalent modification; assay type: binding
T1 construct: MALT1 paracaspase domain (329-728) presented a major peak at 55,988.4 Da
T1 sequence (Q9UDY8 329-728): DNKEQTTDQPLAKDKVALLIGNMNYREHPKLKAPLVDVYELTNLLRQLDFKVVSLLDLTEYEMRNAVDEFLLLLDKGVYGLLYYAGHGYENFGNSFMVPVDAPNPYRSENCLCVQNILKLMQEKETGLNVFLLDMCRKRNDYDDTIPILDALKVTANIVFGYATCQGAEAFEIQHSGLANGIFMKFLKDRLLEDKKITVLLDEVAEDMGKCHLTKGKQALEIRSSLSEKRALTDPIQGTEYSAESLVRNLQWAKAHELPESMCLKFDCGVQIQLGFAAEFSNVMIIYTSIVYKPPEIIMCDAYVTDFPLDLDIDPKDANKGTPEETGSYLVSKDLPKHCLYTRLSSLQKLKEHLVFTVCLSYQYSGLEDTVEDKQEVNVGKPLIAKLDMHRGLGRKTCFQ
Description: The final results were ranked on the predicted binding free energy and the cluster size for each docking conformation.
HPLC/ESI-MS experiments were carried out on 5 μl sample at 1 mg/ml protein concentration. Separation of proteins was performed on a HP 1100 system (Hewlett Packard, Palo Alto, Calif., USA) employing a 1 mm×150 mm LC Packings column packed with POROS R1/H (Perseptive Biosystems, Foster City, Calif., USA). The column was kept at 80° C. Samples were injected onto the column using a CTC PAL autosampler (CTC, Zwingen Switzerland) fitted with a Valco model C6UW HPLC valve (Valco, Houston, Tex., USA) and a 10 μl injection loop. HPLC was controlled by MassLynx software (Micromass, Manchester, UK). UV detection was performed at 214 nm. Eluent A was water containing 0.05% TFA. Eluent B was a 1:9 mixture of water:acetonitrile containing 0.045% TFA. A gradient from 20% B to 90% B was run in 20 minutes. The flow rate was typically 60 μl/min. The total flow from the LC system was introduced into the UV detection cell prior to introduction in the ESI source. The HPLC system was controlled and the signal from the UV detector was processed using MassLynx software. […] Data were recorded and processed using MassLynx software. […]

HBL-1, TMD8 and OCI-Ly10 = test: CFSE dilution assay by flow cytometry, ABC-DLBCL lines; assay type: cell-based, human; conditions: viable cells at 48, 72 and 96 h
Description: Cell proliferation was examined using the CFSE dilution assay by flow cytometry on viable cells at 48, 72 and 96 h. […] Trypan blue exclusion and apoptosis assessed by Annexin V^+ DAPI^− flow cytometry was measured every 48 hr for a period of 14 days.
CFSE covalently labels long-lived intracellular molecules with carboxyfluorescein. Following each cell division, fluorescent molecules dilute in daughter cells, allowing comparative study of the kinetics of cell division. Cells were stained with DAPI (Sigma), followed by flow cytometry. DAPI^neg cells were gated for analysis.

`COCCOc1nc(-c2ccc(Cl)c(Cl)c2)n(-c2ccc(NC(=O)CCl)cc2)n1` [MI-2] gave a GI50 (HBL-1 cells; HBL-1, single dose, 48 hr, read-out: GI50) of 200 nM, a GI50 (HBL-1 cells; HBL-1, read-out: GI50 concentration) of 200 nM and a GI50 (OCI-Ly10 cells) of 400 nM. For the same molecule, the GI50 (OCI-Ly3 cells) was 400 nM, the growth inhibition [1] was “selective for MALT1 dependent cell lines” and the “activity against Caspase-3” value (Caspase-3) was “little activity”. For the same molecule, the “activity against Caspase-9” value (Caspase-9) was “little activity”, the “covalent binding to MALT1” value ([2]; LC-MS) was “bind covalently” and the “increase of the major peak of MALT1 upon incubation” value ([2]; LC-MS, 55,988.4 Da shifted to 56,407.5 Da) was 419.1 Da. The “cell proliferation (CFSE dilution)” value (HBL-1, TMD8 and OCI-Ly10) was “substantially inhibited proliferation”.
